{"source": "paper PMC4770715", "about": "“LIM kinase inhibitors disrupt mitotic microtubule organization and impair tumor cell proliferation” (Oncotarget, 2015)", "test_in_all_cases": "biochemical", "design_in_all_cases": "KINOMEscan active-site competition binding, percent of control (100 = no competition)", "details_in_all_cases": "competition binding, percent control", "key": {"BMPR1B": {"molecular_target": "BMPR1B (Homo sapiens, UniProt O00238)", "sequence (O00238 whole entry)": "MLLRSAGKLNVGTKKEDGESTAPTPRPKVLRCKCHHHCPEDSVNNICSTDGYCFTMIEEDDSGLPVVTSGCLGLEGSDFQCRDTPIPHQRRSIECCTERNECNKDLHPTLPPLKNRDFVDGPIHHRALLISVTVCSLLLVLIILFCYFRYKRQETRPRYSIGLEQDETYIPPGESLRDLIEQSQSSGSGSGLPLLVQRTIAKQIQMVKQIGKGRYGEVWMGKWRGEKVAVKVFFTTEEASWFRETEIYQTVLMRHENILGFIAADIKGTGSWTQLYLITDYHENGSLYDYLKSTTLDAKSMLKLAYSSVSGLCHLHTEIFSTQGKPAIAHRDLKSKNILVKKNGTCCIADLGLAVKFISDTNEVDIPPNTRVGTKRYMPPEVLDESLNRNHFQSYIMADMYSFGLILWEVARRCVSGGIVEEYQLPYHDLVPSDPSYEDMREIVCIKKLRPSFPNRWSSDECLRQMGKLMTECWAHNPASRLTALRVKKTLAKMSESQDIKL"}, "BRAF(V600E)": {"molecular_target": "BRAF(V600E) (Homo sapiens, UniProt P15056, V600E)", "sequence (P15056 whole entry V600E)": "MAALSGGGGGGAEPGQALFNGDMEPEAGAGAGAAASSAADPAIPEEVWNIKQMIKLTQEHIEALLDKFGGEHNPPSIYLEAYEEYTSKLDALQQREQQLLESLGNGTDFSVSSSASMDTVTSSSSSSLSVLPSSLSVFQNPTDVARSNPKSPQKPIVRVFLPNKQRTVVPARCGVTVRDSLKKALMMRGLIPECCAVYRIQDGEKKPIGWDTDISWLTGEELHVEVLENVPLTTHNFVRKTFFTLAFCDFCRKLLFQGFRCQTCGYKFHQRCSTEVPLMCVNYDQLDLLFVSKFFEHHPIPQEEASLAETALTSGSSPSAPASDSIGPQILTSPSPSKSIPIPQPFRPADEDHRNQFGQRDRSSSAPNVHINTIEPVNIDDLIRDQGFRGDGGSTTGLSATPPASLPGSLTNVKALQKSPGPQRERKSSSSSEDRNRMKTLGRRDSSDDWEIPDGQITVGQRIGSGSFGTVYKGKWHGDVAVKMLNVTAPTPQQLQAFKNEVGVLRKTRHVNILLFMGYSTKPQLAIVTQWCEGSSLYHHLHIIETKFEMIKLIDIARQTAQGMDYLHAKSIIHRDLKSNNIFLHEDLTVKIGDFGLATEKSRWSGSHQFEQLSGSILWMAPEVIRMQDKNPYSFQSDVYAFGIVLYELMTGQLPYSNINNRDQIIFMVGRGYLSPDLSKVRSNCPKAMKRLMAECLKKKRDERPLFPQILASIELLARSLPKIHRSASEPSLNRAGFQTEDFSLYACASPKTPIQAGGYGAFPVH"}, "TSSK1B": {"molecular_target": "TSSK1B (Homo sapiens, UniProt Q9BXA7)", "sequence (Q9BXA7 whole entry)": "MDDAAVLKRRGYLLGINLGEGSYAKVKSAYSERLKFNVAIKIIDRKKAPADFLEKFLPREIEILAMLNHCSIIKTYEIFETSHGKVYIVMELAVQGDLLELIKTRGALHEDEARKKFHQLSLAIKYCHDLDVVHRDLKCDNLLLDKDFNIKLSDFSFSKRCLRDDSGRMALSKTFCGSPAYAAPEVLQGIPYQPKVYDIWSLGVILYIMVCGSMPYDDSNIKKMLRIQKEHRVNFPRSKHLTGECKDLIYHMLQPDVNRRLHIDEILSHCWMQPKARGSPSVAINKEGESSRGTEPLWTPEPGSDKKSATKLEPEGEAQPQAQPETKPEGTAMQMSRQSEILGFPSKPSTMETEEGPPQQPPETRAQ"}, "CSNK1A1L": {"molecular_target": "CSNK1A1L (Homo sapiens, UniProt Q8N752)"}, "MEK5": {"molecular_target": "T1, MEK5 (Homo sapiens, UniProt Q13163)", "T1 construct": "gene MAP2K5"}, "CDK4-cyclinD3": {"molecular_target": "T2, CDK4-cyclinD3 (Homo sapiens, UniProt P11802)", "T2 construct": "cyclinD3"}, "ERBB3": {"molecular_target": "ERBB3 (Homo sapiens, UniProt P21860)"}, "LZK": {"molecular_target": "T3, LZK (Homo sapiens, UniProt O43283)", "T3 construct": "gene MAP3K13"}, "EGFR(G719C)": {"molecular_target": "EGFR(G719C) (Homo sapiens, UniProt P00533, G719C)"}, "PKAC-alpha": {"molecular_target": "T4, PKAC-alpha (Homo sapiens, UniProt P17612)", "T4 construct": "gene PRKACA"}, "INSR": {"molecular_target": "INSR (Homo sapiens, UniProt P06213)", "sequence (P06213 whole entry)": "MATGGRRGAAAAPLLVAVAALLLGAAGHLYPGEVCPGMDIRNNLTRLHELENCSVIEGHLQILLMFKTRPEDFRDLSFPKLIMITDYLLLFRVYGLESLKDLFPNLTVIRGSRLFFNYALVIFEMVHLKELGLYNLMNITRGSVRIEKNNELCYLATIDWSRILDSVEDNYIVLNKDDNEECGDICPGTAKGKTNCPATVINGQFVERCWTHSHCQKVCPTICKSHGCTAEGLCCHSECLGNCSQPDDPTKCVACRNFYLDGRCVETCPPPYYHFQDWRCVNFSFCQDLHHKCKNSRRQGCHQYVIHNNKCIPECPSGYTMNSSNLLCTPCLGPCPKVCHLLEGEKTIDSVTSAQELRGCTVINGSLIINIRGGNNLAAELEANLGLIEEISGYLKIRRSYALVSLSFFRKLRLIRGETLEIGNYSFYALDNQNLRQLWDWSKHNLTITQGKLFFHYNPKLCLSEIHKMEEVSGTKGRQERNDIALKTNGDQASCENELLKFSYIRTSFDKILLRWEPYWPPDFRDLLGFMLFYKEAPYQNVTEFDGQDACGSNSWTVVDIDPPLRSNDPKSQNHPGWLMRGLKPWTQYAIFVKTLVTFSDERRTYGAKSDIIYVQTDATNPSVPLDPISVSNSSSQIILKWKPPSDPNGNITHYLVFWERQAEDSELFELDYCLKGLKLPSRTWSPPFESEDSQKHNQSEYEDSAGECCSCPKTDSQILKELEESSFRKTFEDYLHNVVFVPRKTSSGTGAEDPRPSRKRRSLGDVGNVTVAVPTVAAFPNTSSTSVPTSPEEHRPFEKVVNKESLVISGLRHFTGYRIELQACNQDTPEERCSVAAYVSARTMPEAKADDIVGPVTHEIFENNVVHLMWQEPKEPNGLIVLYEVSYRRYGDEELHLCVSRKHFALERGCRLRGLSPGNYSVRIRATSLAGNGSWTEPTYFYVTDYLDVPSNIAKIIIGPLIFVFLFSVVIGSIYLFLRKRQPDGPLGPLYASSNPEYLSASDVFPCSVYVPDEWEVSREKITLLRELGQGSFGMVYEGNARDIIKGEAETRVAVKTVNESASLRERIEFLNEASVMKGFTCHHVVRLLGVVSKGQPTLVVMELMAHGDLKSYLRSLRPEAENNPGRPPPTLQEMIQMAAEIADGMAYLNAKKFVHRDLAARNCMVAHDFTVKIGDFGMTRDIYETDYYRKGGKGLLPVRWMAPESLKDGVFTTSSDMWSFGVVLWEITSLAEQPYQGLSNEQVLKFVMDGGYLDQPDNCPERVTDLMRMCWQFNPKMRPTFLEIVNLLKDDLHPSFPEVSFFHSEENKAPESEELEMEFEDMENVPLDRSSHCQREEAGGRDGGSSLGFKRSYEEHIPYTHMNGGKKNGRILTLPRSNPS"}, "ULK3": {"molecular_target": "ULK3 (Homo sapiens, UniProt Q6PHR2)", "sequence (Q6PHR2 whole entry)": "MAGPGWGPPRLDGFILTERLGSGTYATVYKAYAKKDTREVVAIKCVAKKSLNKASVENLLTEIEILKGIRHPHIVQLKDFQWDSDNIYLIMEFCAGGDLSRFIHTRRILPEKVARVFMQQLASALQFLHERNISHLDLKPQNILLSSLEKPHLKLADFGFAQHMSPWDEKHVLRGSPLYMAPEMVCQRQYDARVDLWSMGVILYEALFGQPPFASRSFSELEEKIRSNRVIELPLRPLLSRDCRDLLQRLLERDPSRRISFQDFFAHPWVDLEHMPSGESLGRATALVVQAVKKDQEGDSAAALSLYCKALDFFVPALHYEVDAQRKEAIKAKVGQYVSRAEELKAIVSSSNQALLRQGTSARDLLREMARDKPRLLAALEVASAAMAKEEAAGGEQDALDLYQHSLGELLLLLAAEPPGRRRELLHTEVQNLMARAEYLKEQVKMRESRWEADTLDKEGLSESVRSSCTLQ"}, "ROCK1": {"molecular_target": "ROCK1 (Homo sapiens, UniProt Q13464)"}, "[1]": {"molecular_target": "T5, ABL1(Q252H)-phosphorylated (Homo sapiens, UniProt P00519, Q252H)", "T5 construct": "phosphorylated"}, "TAK1": {"molecular_target": "T6, TAK1 (Homo sapiens, UniProt O43318)", "T6 construct": "gene MAP3K7"}, "DRAK2": {"molecular_target": "T7, DRAK2 (Homo sapiens, UniProt O94768)", "T7 construct": "gene STK17B"}, "PFTK1": {"molecular_target": "T8, PFTK1 (Homo sapiens, UniProt O94921)", "T8 construct": "gene CDK14"}, "ERK8": {"molecular_target": "T9, ERK8 (Homo sapiens, UniProt Q8TD08)", "T9 construct": "gene MAPK15"}, "p38-beta": {"molecular_target": "T10, p38-beta (Homo sapiens, UniProt Q15759)", "T10 construct": "gene MAPK11"}, "CDK8": {"molecular_target": "CDK8 (Homo sapiens, UniProt P49336)", "sequence (P49336 whole entry)": "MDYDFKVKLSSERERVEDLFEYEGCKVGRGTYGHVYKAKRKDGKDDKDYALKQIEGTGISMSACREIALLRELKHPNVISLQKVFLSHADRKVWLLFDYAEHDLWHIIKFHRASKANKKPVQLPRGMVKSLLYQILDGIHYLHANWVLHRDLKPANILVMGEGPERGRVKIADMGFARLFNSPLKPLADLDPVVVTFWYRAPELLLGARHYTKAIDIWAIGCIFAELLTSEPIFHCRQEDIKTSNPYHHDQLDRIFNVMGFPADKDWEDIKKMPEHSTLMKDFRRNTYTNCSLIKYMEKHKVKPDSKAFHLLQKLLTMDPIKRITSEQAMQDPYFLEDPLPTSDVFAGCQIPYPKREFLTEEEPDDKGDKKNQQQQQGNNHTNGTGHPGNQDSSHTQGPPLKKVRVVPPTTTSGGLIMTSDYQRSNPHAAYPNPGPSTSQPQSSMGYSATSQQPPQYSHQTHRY"}, "FLT3": {"molecular_target": "FLT3 (Homo sapiens, UniProt P36888)", "sequence (P36888 whole entry)": "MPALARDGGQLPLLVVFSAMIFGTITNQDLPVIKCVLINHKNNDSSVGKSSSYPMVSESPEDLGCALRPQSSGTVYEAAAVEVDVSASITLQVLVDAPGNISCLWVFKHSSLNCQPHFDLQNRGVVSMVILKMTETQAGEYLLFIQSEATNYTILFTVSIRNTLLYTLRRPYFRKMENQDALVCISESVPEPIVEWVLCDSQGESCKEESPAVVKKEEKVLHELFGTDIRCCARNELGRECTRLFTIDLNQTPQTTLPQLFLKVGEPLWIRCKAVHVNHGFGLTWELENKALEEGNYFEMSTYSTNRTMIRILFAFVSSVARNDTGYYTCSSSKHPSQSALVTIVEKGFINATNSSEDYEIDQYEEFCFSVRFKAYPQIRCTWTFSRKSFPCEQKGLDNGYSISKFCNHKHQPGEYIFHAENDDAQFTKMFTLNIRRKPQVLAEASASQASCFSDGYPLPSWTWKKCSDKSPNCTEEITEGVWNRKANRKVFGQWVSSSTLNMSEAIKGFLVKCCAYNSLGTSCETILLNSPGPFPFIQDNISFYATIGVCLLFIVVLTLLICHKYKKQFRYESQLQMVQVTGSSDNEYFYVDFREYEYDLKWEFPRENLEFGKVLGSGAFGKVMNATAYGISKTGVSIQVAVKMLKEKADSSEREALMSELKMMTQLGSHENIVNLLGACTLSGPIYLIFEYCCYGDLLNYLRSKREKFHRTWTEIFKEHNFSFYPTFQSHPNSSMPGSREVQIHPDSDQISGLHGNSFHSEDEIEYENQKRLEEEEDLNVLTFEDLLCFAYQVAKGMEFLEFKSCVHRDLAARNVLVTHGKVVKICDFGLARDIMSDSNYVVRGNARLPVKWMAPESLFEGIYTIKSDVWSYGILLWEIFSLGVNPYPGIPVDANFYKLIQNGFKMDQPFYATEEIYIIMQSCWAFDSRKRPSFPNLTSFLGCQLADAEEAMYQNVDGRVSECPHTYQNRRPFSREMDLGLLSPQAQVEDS"}, "PLK2": {"molecular_target": "PLK2 (Homo sapiens, UniProt Q9NYY3)"}}, "data": [{"smiles": "COc1ccc(-c2cnccc2-c2cnc(NC(=O)C(C)C)s2)c(C(F)(F)F)c1", "note": "[CRT0105446, N-{5-[3-(4-Methoxy-2-trifluoromethyl-phenyl)-pyridin-4-yl]-hiazol-2-yl}-isobutyramide]", "values": [{"measurement": "remaining binding at 10 µM", "setting": "BMPR1B", "value": 92, "unit": "%"}, {"measurement": "remaining binding at 10 µM", "setting": "BRAF(V600E)", "value": 64, "unit": "%"}, {"measurement": "remaining binding at 10 µM", "setting": "TSSK1B", "value": 80, "unit": "%"}, {"measurement": "remaining binding at 10 µM", "setting": "CSNK1A1L", "value": 96, "unit": "%"}, {"measurement": "remaining binding at 10 µM", "setting": "MEK5", "value": 100, "unit": "%"}, {"measurement": "remaining binding at 10 µM", "setting": "CDK4-cyclinD3", "value": 48, "unit": "%"}, {"measurement": "remaining binding at 10 µM", "setting": "ERBB3", "value": 100, "unit": "%"}, {"measurement": "remaining binding at 10 µM", "setting": "LZK", "value": 100, "unit": "%"}, {"measurement": "remaining binding at 10 µM", "setting": "EGFR(G719C)", "value": 89, "unit": "%"}, {"measurement": "remaining binding at 10 µM", "setting": "PKAC-alpha", "value": 100, "unit": "%"}, {"measurement": "remaining binding at 10 µM", "setting": "INSR", "value": 100, "unit": "%"}, {"measurement": "remaining binding at 10 µM", "setting": "ULK3", "value": 100, "unit": "%"}, {"measurement": "remaining binding at 10 µM", "setting": "ROCK1", "value": 86, "unit": "%"}, {"measurement": "remaining binding at 10 µM", "setting": "[1]", "value": 81, "unit": "%"}, {"measurement": "remaining binding at 10 µM", "setting": "TAK1", "value": 79, "unit": "%"}, {"measurement": "remaining binding at 10 µM", "setting": "DRAK2", "value": 100, "unit": "%"}, {"measurement": "remaining binding at 10 µM", "setting": "PFTK1", "value": 51, "unit": "%"}, {"measurement": "remaining binding at 10 µM", "setting": "ERK8", "value": 1.4, "unit": "%"}, {"measurement": "remaining binding at 10 µM", "setting": "p38-beta", "value": 100, "unit": "%"}, {"measurement": "remaining binding at 10 µM", "setting": "CDK8", "value": 39, "unit": "%"}, {"measurement": "remaining binding at 10 µM", "setting": "FLT3", "value": 41, "unit": "%"}, {"measurement": "remaining binding at 10 µM", "setting": "PLK2", "value": 99, "unit": "%"}]}, {"smiles": "Cc1ccc(-c2cnccc2-c2cnc(Nc3ccc(O)cc3)s2)c(Cl)c1", "note": "[CRT0105950, 4-{5-[3-(2-Chloro-4-methyl-phenyl)-pyridin-4-yl]-thiazol-2-ylamino}-phenol]", "values": [{"measurement": "remaining binding at 10 µM", "setting": "BMPR1B", "value": 29, "unit": "%"}, {"measurement": "remaining binding at 10 µM", "setting": "BRAF(V600E)", "value": 83, "unit": "%"}, {"measurement": "remaining binding at 10 µM", "setting": "TSSK1B", "value": 100, "unit": "%"}, {"measurement": "remaining binding at 10 µM", "setting": "CSNK1A1L", "value": 74, "unit": "%"}, {"measurement": "remaining binding at 10 µM", "setting": "MEK5", "value": 60, "unit": "%"}, {"measurement": "remaining binding at 10 µM", "setting": "CDK4-cyclinD3", "value": 13, "unit": "%"}, {"measurement": "remaining binding at 10 µM", "setting": "ERBB3", "value": 100, "unit": "%"}, {"measurement": "remaining binding at 10 µM", "setting": "LZK", "value": 96, "unit": "%"}, {"measurement": "remaining binding at 10 µM", "setting": "EGFR(G719C)", "value": 71, "unit": "%"}, {"measurement": "remaining binding at 10 µM", "setting": "PKAC-alpha", "value": 41, "unit": "%"}, {"measurement": "remaining binding at 10 µM", "setting": "INSR", "value": 1, "unit": "%"}, {"measurement": "remaining binding at 10 µM", "setting": "ULK3", "value": 68, "unit": "%"}, {"measurement": "remaining binding at 10 µM", "setting": "ROCK1", "value": 79, "unit": "%"}, {"measurement": "remaining binding at 10 µM", "setting": "[1]", "value": 74, "unit": "%"}, {"measurement": "remaining binding at 10 µM", "setting": "TAK1", "value": 33, "unit": "%"}, {"measurement": "remaining binding at 10 µM", "setting": "DRAK2", "value": 100, "unit": "%"}, {"measurement": "remaining binding at 10 µM", "setting": "PFTK1", "value": 47, "unit": "%"}, {"measurement": "remaining binding at 10 µM", "setting": "ERK8", "value": 1.6, "unit": "%"}, {"measurement": "remaining binding at 10 µM", "setting": "p38-beta", "value": 93, "unit": "%"}, {"measurement": "remaining binding at 10 µM", "setting": "CDK8", "value": 11, "unit": "%"}, {"measurement": "remaining binding at 10 µM", "setting": "FLT3", "value": 0.55, "unit": "%"}, {"measurement": "remaining binding at 10 µM", "setting": "PLK2", "value": 9, "unit": "%"}]}]}
